In assay [1] the target is Cell division cycle 7-related protein kinase (Homo sapiens, UniProt O00311). The format is functional.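 Note: value obtained from a kinome-wide kinase panel.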
Assay [2] addresses Dual specificity protein kinase CLK4 (Homo sapiens, UniProt Q9HAZ1). The format is functional.
Assay [3] concerns the target Homeodomain-interacting protein kinase 2 (Homo sapiens, UniProt Q9H2X6). The format is functional.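 Note: measured within a kinome-wide kinase profiling panel, HIPK2 being one panel member.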
The target in assay [4] is Interleukin-1 receptor-associated kinase 4 (Homo sapiens, UniProt Q9NWZ3). The format is functional.
Assay [5] addresses Glycogen synthase kinase-3 beta (Homo sapiens, UniProt P49841). The format is functional.
For assay [6], the target named is Mitogen-activated protein kinase kinase kinase kinase 4 (Homo sapiens, UniProt O95819). The format is functional.
The target of assay [7] is cAMP-dependent protein kinase catalytic subunit alpha (Homo sapiens, UniProt P17612). The format is functional.
Assay [8] has as its target MAP kinase-interacting serine/threonine-protein kinase 2 (Homo sapiens, UniProt Q9HBH9). The format is functional.
The target in assay [9] is Serine/threonine-protein kinase pim-1 (Homo sapiens, UniProt P11309). The format is functional.
In assay [10] the target is Inhibitor of nuclear factor kappa-B kinase subunit beta (Homo sapiens, UniProt O14920). The format is functional.
Assay [11] concerns the target Megakaryocyte-associated tyrosine-protein kinase (Homo sapiens, UniProt P42679). The format is functional.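 Note: affinity measured as one member of a kinase panel (Navigating the Kinome) against MATK.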
Assay [12] concerns the target Inhibitor of nuclear factor kappa-B kinase subunit alpha (Homo sapiens, UniProt O15111). The format is functional.
Assay [13] deals with MAP kinase-activated protein kinase 3 (Homo sapiens, UniProt Q16644). The format is functional.
The target in assay [14] is Serine/threonine-protein kinase Chk2 (Homo sapiens, UniProt O96017). The format is functional.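 Note: CHEK2 entry within a kinome-wide screening panel.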
Assay [15] addresses Serine/threonine-protein kinase Nek4 (Homo sapiens, UniProt P51957). The format is functional.
For assay [16], the target named is Dual specificity tyrosine-phosphorylation-regulated kinase 4 (Homo sapiens, UniProt Q9NR20). The format is functional.
Assay [17] concerns the target Mitogen-activated protein kinase 13 (Homo sapiens, UniProt O15264). The format is functional.
Assay [18] addresses Homeodomain-interacting protein kinase 4 (Homo sapiens, UniProt Q8NE63). The format is functional.
Assay [19] has as its target Eukaryotic elongation factor 2 kinase (Homo sapiens, UniProt O00418). The format is functional.
Assay [20] has as its target Misshapen-like kinase 1 (Homo sapiens, UniProt Q8N4C8). The format is functional.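 Note: kinome panel screen with MINK as the panel member.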
Assay [21] concerns the target Protein kinase C gamma type (Homo sapiens, UniProt P05129). The format is functional.
In assay [22] the target is T1, Microphthalmia-associated transcription factor (Homo sapiens, UniProt O75030).
T1 sequence (O75030 whole entry): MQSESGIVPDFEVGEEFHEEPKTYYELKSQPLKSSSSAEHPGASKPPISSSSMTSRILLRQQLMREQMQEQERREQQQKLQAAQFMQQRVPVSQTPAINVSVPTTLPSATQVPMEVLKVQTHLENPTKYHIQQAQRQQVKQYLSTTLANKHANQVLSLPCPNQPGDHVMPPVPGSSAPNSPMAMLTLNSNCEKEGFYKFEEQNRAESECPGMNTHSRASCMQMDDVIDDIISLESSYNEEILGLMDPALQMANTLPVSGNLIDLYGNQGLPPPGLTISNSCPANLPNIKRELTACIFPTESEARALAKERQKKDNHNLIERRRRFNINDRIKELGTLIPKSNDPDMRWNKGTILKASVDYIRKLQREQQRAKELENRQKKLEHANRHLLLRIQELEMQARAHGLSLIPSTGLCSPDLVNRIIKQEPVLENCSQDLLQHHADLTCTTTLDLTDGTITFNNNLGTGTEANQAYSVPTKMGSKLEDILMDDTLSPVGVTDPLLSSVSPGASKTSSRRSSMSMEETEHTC
In words: reducers of TRPM1 reporter luminescence, concentration series – cell-based, SK-MEL-5, cherry-picked, set 3, MITF inhibitor project, dose response (AID 493073).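 Note: SK-MEL-5 melanoma cells with luciferase driven by the MITF target TRPM1 promoter.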 The format is functional.

In assay [23] the target is T2, V-type proton ATPase subunit c' (Saccharomyces cerevisiae S288c, UniProt P32842). In words: Dose Response of Small Molecules that Regulate V-ATPase Proton Transport in Yeast using pHLuorin, Powder Set1. Particulars: read-out: EC50_MICROM. The format is functional.
Assay [24] has as its target T2, V-type proton ATPase subunit c'. Put plainly: Dose Response of Small Molecules that Regulate V-ATPase Proton Transport in Yeast using pHLuorin, Cherry Pick 2. The format is functional. Particulars: read-out: EC50_MICROM.
The target of assay [25] is Heat shock protein HSP 90-alpha (Homo sapiens, UniProt P07900). The format is functional, organism-based.
For assay [26], the target named is T3, Orexin/Hypocretin receptor type 1 (Homo sapiens, UniProt O43613).
T3 sequence (O43613 whole entry): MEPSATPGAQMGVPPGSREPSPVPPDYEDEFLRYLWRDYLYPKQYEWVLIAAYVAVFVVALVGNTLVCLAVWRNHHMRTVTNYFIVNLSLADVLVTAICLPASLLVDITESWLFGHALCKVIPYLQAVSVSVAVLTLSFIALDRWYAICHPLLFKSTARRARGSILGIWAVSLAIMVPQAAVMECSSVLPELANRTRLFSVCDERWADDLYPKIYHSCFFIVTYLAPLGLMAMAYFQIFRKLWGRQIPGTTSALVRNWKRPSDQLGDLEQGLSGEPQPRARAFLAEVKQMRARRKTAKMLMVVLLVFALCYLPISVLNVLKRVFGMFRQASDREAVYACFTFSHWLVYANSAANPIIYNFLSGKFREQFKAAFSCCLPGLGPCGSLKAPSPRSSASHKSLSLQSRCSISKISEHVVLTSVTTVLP
Put plainly: Homogeneous Time Resolved Fluorescence (HTRF)-based cell-based high throughput dose response assay for antagonists of the orexin 1 receptor (OX1R; HCRTR1). [Related pubchem assays (depositor defined):AID434989, AID435008, AID463079, AID485270, AID492963, AID492964, AID492965, AID493232, AID504717, AID504718]. The format is functional. In general terms: In TR-FRET formats the signal depends on donor and acceptor labels being close together.

The nature of assay [27]: Counterscreen for antagonists of the orexin 1 receptor (OX1R; HCRTR1): Fluorescence-based cell-based high throughput dose response assay to identify antagonists of the parental CHO cell line. [Related pubchem assays (depositor defined):AID434989, AID435008, AID463079, AID485270, AID492963, AID492964, AID492965, AID493232, AID504699, AID504701]. The format is functional.

Assay [28] is described as follows: microbe, parasite or virus in culture. The format is functional. Particulars: Mycobacterium tuberculosis.
Assay [29] concerns the target T3, Orexin/Hypocretin receptor type 1. Put plainly: Fluorescence-based cell-based high throughput dose response assay for antagonists of the orexin 1 receptor (OX1R; HCRTR1). [Related pubchem assays (depositor defined):AID434989, AID435008, AID463079, AID485270, AID492963, AID492964, AID492965, AID493232, AID504717, AID504718]. The format is functional.
Assay [30] deals with T4, Orexin receptor type 2 (Homo sapiens, UniProt O43614). Put plainly: Counterscreen assay for antagonists of the orexin 1 receptor (OX1R; HCRTR1): Fluorescence-based cell-based dose response assay for antagonists of the orexin 2 receptor (OX2R; HCRTR2), run by assay provider. The format is functional. For orientation: Counterscreens check selectivity or assay interference.

Assay [31] concerns CHO-K1. In words: Counterscreen for antagonists of the orexin 1 receptor (OX1R; HCRTR1): Homogeneous time resolved fluorescence (HTRF)-based cell-based dose response assay to identify antagonists of the parental CHO-K1 cell line. [Related pubchem assays (depositor defined):AID434989, AID435008, AID463079, AID485270, AID492963, AID492964, AID492965, AID493232, AID504699, AID504701]. The format is functional. Particulars: Cricetulus griseus.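 Note: potency for inhibition of ATP-stimulated IP1 production as antagonists.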

In assay [32] the target is T4, Orexin receptor type 2. Put plainly: Counterscreen assay for antagonists of the orexin 1 receptor (OX1R; HCRTR1): Homogeneous Time Resolved Fluorescence (HTRF)-based cell-based dose response assay for antagonists of the orexin 2 receptor (OX2R; HCRTR2), run by assay provider. The format is functional.

Calls of active or inactive are those of the source. Bounds are passed on as bounds.

Sequence of Homeodomain-interacting protein kinase 2 (Q9H2X6 whole entry): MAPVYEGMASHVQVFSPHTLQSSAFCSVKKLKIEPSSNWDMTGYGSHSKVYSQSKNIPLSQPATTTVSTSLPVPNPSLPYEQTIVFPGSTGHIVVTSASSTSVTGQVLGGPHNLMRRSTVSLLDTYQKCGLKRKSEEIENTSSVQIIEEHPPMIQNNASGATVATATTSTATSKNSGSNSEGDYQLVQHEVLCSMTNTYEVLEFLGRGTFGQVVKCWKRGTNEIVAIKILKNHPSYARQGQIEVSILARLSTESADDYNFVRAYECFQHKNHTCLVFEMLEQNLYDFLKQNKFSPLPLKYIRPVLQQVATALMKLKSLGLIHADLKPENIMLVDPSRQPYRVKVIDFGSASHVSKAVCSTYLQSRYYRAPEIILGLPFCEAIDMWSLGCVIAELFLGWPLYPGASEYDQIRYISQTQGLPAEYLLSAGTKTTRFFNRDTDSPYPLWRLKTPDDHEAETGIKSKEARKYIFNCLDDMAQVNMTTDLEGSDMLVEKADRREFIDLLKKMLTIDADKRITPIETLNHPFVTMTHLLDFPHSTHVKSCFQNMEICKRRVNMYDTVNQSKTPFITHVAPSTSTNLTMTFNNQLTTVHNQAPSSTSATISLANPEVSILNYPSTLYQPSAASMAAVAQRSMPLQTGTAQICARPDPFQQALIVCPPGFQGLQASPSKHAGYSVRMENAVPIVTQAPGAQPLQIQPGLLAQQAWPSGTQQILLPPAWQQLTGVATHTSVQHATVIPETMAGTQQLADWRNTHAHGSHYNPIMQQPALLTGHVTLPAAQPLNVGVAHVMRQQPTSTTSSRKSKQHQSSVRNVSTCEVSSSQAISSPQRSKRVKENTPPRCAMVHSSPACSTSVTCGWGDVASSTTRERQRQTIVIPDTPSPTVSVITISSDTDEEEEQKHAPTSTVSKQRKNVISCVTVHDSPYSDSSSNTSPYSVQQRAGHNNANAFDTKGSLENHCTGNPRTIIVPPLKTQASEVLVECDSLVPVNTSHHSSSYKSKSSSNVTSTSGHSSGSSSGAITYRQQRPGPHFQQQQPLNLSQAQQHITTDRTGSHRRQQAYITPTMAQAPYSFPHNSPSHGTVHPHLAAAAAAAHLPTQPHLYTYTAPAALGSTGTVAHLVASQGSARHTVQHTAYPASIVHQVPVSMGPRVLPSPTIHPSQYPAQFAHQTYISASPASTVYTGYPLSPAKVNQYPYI
T4 sequence (O43614 whole entry): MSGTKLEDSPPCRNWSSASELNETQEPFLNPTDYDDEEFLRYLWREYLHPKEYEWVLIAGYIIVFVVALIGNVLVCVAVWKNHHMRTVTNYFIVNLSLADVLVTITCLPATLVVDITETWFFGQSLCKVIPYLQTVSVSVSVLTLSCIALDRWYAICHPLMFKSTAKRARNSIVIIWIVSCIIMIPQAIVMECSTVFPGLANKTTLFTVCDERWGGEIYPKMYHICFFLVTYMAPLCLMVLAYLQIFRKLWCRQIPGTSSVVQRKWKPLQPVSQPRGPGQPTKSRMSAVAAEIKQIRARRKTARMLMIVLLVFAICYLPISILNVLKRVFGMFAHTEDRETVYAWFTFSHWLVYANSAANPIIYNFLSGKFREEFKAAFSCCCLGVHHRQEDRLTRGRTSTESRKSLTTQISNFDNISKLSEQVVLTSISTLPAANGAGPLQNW
T2 sequence (P32842 whole entry): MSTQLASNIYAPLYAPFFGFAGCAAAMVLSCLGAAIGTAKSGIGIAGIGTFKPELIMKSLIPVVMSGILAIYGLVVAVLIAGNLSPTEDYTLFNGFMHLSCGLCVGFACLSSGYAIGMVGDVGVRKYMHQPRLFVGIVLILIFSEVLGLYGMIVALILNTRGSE
Sequence of Mitogen-activated protein kinase 13 (O15264 whole entry): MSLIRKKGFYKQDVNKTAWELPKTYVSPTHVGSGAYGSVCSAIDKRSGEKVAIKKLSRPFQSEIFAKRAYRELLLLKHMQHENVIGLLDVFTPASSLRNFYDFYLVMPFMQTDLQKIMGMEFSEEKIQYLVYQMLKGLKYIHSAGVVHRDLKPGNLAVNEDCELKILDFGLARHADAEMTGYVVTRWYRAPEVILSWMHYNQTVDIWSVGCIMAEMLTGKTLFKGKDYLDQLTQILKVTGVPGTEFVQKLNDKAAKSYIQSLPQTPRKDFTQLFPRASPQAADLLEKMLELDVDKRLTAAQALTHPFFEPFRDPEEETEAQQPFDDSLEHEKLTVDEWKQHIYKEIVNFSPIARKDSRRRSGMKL
Sequence of Eukaryotic elongation factor 2 kinase (O00418 whole entry): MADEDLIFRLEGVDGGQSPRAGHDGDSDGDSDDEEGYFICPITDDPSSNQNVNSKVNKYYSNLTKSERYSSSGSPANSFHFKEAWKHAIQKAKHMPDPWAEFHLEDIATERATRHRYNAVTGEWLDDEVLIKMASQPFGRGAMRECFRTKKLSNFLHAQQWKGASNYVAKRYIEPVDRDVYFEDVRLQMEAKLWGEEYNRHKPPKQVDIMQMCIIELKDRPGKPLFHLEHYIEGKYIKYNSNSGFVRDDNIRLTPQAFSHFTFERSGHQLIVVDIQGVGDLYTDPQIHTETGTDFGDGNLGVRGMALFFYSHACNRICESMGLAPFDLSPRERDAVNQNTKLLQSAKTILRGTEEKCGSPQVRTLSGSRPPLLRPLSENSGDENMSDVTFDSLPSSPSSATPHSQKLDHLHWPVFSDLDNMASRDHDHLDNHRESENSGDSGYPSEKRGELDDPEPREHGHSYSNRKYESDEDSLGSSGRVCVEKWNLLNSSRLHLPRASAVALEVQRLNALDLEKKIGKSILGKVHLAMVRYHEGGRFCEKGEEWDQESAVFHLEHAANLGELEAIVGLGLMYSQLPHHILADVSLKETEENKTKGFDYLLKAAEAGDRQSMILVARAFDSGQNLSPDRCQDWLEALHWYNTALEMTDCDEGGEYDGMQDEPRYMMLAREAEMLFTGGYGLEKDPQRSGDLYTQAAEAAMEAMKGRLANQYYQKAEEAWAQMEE
Sequence of Inhibitor of nuclear factor kappa-B kinase subunit alpha (O15111 whole entry): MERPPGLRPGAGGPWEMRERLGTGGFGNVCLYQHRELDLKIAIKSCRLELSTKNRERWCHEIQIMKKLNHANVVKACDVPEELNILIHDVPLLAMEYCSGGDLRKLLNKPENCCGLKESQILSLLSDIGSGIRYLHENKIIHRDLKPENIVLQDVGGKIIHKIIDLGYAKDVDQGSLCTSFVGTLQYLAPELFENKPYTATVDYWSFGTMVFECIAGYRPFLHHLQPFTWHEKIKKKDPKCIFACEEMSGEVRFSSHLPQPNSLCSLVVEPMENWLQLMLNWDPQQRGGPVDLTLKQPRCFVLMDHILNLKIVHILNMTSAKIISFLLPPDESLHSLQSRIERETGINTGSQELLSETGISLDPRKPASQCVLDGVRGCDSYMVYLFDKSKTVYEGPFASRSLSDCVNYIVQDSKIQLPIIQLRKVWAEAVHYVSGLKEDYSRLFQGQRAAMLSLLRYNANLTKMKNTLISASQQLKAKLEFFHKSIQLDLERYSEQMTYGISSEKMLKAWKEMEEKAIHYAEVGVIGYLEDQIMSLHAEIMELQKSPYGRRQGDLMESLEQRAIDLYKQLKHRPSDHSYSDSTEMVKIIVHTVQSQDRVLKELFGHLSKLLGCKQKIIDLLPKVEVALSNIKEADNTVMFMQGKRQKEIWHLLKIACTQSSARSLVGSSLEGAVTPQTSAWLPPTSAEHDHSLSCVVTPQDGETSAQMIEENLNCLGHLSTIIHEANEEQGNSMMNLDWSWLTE
Sequence of Glycogen synthase kinase-3 beta (P49841 whole entry): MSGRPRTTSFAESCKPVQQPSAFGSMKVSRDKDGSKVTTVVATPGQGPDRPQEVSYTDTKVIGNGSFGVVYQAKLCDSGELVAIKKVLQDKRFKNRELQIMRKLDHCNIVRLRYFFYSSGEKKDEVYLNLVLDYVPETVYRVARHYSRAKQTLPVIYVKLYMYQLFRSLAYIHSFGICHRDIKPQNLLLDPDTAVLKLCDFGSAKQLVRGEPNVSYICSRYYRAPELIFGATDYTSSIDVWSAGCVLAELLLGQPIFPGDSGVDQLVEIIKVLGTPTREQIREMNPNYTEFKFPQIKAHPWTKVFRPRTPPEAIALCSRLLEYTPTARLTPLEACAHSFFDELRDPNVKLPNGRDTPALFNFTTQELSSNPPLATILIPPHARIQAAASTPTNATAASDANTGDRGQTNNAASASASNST
Sequence of Inhibitor of nuclear factor kappa-B kinase subunit beta (O14920 whole entry): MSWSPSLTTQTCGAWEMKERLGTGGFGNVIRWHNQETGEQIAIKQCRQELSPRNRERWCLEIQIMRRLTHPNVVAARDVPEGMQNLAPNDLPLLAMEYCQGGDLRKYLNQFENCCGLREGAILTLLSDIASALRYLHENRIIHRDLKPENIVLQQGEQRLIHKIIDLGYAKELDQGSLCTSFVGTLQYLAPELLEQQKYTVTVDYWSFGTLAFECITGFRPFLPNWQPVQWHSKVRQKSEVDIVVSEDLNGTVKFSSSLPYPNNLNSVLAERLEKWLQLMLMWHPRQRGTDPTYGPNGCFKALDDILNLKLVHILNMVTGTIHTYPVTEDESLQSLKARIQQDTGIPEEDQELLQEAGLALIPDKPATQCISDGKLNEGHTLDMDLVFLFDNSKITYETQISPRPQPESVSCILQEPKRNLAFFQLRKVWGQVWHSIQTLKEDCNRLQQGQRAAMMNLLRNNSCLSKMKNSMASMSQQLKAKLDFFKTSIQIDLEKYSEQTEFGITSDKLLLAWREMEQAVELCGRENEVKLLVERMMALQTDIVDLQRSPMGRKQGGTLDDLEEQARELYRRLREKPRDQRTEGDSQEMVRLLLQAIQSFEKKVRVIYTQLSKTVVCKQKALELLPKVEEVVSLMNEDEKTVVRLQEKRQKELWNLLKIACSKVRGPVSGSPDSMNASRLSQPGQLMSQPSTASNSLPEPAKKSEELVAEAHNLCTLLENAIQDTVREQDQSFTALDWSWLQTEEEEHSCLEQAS

One may read the Ki as the dissociation constant of the complex between target and ligand, obtained from inhibition or displacement. With `c1ccc(Cn2cc(-c3ccc4[nH]nc(-c5ccccc5)c4c3)nn2)cc1`, the Ki is 0.00794 µM (active) in assay [1]; 0.00398 µM (active) in assay [2]; 0.0316 µM (active) in assay [3]; 0.631 µM (active) in assay [4]; 0.02 µM (active) in assay [5]; 0.0398 µM (active) in assay [6]. Moreover, the Ki is 3.98 µM (active) in [7], 0.2 µM (active) in assay [8] and 0.251 µM (active) in [9].

For the compound `CCC(CO)Nc1nc(NCc2ccccc2)c2ncn(C(C)C)c2n1` (stereo not drawn) [(RS)-ROSCOVITINE], the Ki in assay [10] was > 3.16 µM (inactive); in [11] it was > 2 µM (inactive); in [12], > 3.98 µM (inactive); in [13], > 10 µM (inactive); in assay [3], > 3.16 µM (inactive); in [14] it was > 5.01 µM (inactive). For the same compound, the Ki is > 6.31 µM (inactive) in [15]; > 7.94 µM (inactive) in assay [16]; > 7.94 µM (inactive) in assay [17]; 1.58 µM (active) in assay [18]; > 3.98 µM (inactive) in [19]; > 7.94 µM (inactive) in [20]. In assay [21], the Ki is > 7.94 µM (inactive).

Broadly, the AC50 is the midpoint of the concentration-response curve, whichever way the signal moves. For `O=C(Nc1ccccc1N1CCOCC1)c1ccc([N+](=O)[O-])o1`, the AC50 in assay [22] is 11.9 µM (active); in [25] it was 3.63 µM (active). For the same compound, the EC50 was 4.18 µM (active) in assay [23] and 25.3 µM (active) in assay [24].

Broadly, the IC50 is the concentration needed to halve the response being measured. On to `OCC1(Cc2cccc(Cl)c2)CCCN(Cc2ccc3cc(F)ccc3n2)C1` (stereo not drawn), for which the IC50 in assay [26] was 6.33 µM (active); in [27], 31.4 µM (inactive); in assay [29], > 5.53 µM (active); in [30], 6.7 µM (active); in assay [31] it was > 66.2 µM (inactive); in [32], 25.1 µM (inactive). For the same compound, in [28], the CC50 was > 40 µM (active).
